Laboratory results as given in patent US20250290076A1, “EPICARDIAL CELL REGENERATION PROMOTER AND METHOD FOR PROMOTING EPICARDIAL CELL REGENERATION” (KYOTO UNIVERSITY, priority 2022, published 2025).

Key:
Type in all cases: cell-based
[1] = tested on: CDKN1A; assay: siRNA transfection assay, relative CDKN1A mRNA expression by quantitative RT-PCR; settings: human iPS cell-derived fetal epicardium; vs negative control siRNA; normalized with GAPDH
Method: (§1) In the siRNA transfection assay, the human iPS cell-derived fetal epicardium was seeded at a density of 0.8×10^6 cells per 10 cm dish, and transfection was carried out using RNAiMax (Invitrogen). Twenty-four hours after the transfection, the culture medium was replaced with a fresh medium. A small interfering RNA (siRNA) (sense strand: CAAGGAGUCAGACAUUUUAtt (SEQ ID NO: 1), an anti-sense strand: UAAAAUGUCUGACUCCUUGtt (SEQ ID NO: 2)) targeting CDKN1A, and a negative control siRNA No.1 (4390843) derived from Ambion Silencer Select, were used in accordance with the manufacturer's instructions.
RNAs were extracted using QIAzol lysis reagent (manufactured by QIAGEN N.V.), and cDNA was synthesized from the total RNA using ReverTra Ace qPCR RT Master Mix with gDNA Remover (manufactured by TOYOBO Co., Ltd.). Subsequently, quantitative RT-PCR was performed using Thunderbird SYBR qPCR Mix (manufactured by TOYOBO Co., Ltd.)), in One Step Real-Time PCR System (Applied Biosystems). The gene expression results were quantified by the AACt method, and normalized with GAPDH.
The primers used are as follows. […]
The human iPS cell-derived fetal epicardium was subjected to siRNA transfection assay, using a siRNA (siCDKN1A) targeting CDKN1A or a negative control siRNA (control), and the relative mRNA expression levels of CDKN1A were measured by quantitative RT-PCR.

[2] = tested on: human iPS cell-derived fetal epicardium; assay: Transcriptome analysis for gene signature of cell quiescence by RNA sequencing; settings: compared to human iPS cell-derived fetal epicardium and adult epicardium
Method: as §1
The data obtained by RNA sequencing were normalized using NOISeq. The data of the adult epicardium are published for the analysis, under the GSE accession number: GSE8484085. The primary data of the RNA sequencing were processed using RStudio, for mapping and gene expression analysis. The gene expression data for searching, loading and pre-processing were processed using the Bioconductor package, NOISeq, for performing the data analysis and the differential expression analysis of the RNA sequencing data. Heatmaps for clustering differentially expressed genes (DEG) were generated, using R script.
In addition, the transcriptome analysis for detecting the gene signature of cell quiescence was carried out by RNA sequencing (FIG. 6). […]

[3] = tested on: human iPS cell-derived fetal epicardium; assay: Cell proliferation curve assay; settings: cell proliferation curves for 7 days after siRNA transfection; vs negative control siRNA
Method: as §1
The cell proliferation was evaluated by the time-course curve of the proliferation of the cells on a six-well plate. The cells were seeded at a density of 4 ×10^4 cells per well, and the total number of cells was counted using trypan blue for 8 days at intervals of 24 hours. The cell proliferation curves were generated by plotting the number of cells against time. After seeding, the cells were fixed with 4% paraformaldehyde (PFA), and stained with crystal violet on the days the cells were counted. The values were represented as the cell proliferation rate of the cells proliferated in the presence of 10% FBS. “0%” refers to the number of cells on day 0. […]

[4] = tested on: human iPS cell-derived fetal epicardium; assay: Wound-healing assay; settings: from 20 hours to 24 hours after scratching; vs negative control siRNA
Method: as §1
The cells were seeded on a six-well plate and cultured until 100% confluent. Subsequently, the cell monolayer was scratched with a pipette tip, to create a physical wound manually. The scratched area was imaged 0, 12, 16, 20 and 24 hours after scratching. The area without cells at the beginning, and the remaining area after 12, 16, 20 and 24 hours, were quantified by Image-J. Thereafter, the percentage of the scratched area into which migrating cells reassembled (the percentage of the wound-closed area) was calculated, with respect to the scratched area.
Further, the wound-healing assay was performed for the human iPS cell-derived fetal epicardium which had been subjected to the transfection assay using each siRNA. […]

[5] = tested on: human epicardial cells; assay: Colony formation assay; settings: colony formation for 14 days after siRNA transfection; vs negative control siRNA
Method: as §1
[…] Thereafter, the colony was fixed with 4% PFA, stained with crystal violet, and counted by Image-J.
The colony formation assay was carried out in the same manner, in order to measure the viability of the human epicardial cells.

Substance: siCDKN1A: siRNA targeting CDKN1A; sense strand CAAGGAGUCAGACAUUUUAtt (SEQ ID NO: 1), anti-sense strand UAAAAUGUCUGACUCCUUGtt (SEQ ID NO: 2) (sense CAAGGAGUCAGACAUUUUATT; antisense UAAAAUGUCUGACUCCUUGTT; chemistry not given here)
- expression level of CDKN1A at the mRNA level as compared to that in the control [1]: ≤ 50%
- cell quiescence gene signature [2]: more released from quiescence
- proliferative capacity of the human epicardial cells [3]: significant increase
- wound healing capacity (percentage of the wound-closed area) [4]: significant increase
- viability of the human epicardial cells (colony formation) [5]: significant increase
